According to patent publication US20220289794A1, “SYNTHETIC ANTIMICROBIAL PEPTIDES” (priority 2019, published 2022):
In brackets after ≈: the same amount, converted by molar mass. Blank lines part the entries; values can stand above or below the compound they belong to. Non-standard residues stand in square brackets, D forms with d. Residues, ends and D or L forms follow the SMILES beside them. Dip = N[C@H](C(=O)O)C(c1ccccc1)c1ccccc1; 2Nal = N[C@@H](Cc1ccc2ccccc2c1)C(=O)O

Columns and labels:
human red blood cells = tested on: human red blood cells; parameters: unit not given beside the values
S. aureus ATCC 29213 = conditions: ATCC 29213
[1] = tested on: Escherichia coli (ATCC 25922); conditions: ATCC 25922
[2] = tested on: Methicillin-resistant Staphylococcus aureus MRSA (ATCC BAA-1556); conditions: ATCC BAA-1556
[3] = tested on: Pseudomonas aeruginosa (ATCC 27883); conditions: ATCC 27883

Structure (SMILES): N=C(N)NCCC[C@H](NC(=O)[C@H](CCCNC(=N)N)NC(=O)[C@H](CCCNC(=N)N)NC(=O)[C@@H](N)CCCNC(=N)N)C(=O)N[C@@H](Cc1ccc2ccccc2c1)C(=O)N[C@@H](Cc1ccc2ccccc2c1)C(=O)N[C@@H](Cc1ccc2ccccc2c1)C(=O)O [IFX-009-1, NH2-Arg-Arg-Arg-Arg-NaI-NaI-NaI-OH] (H-RRRR[2Nal][2Nal][2Nal]-OH)
HC50 (human red blood cells): 260
MIC S. aureus ATCC 29213 (S. aureus ATCC 29213): 3.1 µg/mL (≈ 2.51 µM)
MIC E. coli ATCC 25922 [1]: 12.5 µg/mL (≈ 10.1 µM)
MIC MRSA ATCC BAA-1556 [2]: 3.1 µg/mL (≈ 2.51 µM)
MIC P. aeruginosa ATCC 27883 [3]: 12.5 µg/mL (≈ 10.1 µM)

Structure (SMILES): N=C(N)NCCC[C@H](NC(=O)[C@H](CCCNC(=N)N)NC(=O)[C@@H](N)CCCNC(=N)N)C(=O)N[C@@H](CCCNC(=N)N)C(=O)N[C@H](C(=O)N[C@H](C(=O)O)C(c1ccccc1)c1ccccc1)C(c1ccccc1)c1ccccc1 [IFX-010-1, NH2-Arg-Arg-Arg-Arg-Dip-Dip-OH] (H-RRRR[Dip][Dip]-OH)
HC50 (human red blood cells): 360
MIC S. aureus ATCC 29213 (S. aureus ATCC 29213): 12.5 µg/mL (≈ 11.5 µM)
MIC E. coli ATCC 25922 [1]: 50 µg/mL (≈ 45.9 µM)
MIC MRSA ATCC BAA-1556 [2]: 12.5 µg/mL (≈ 11.5 µM)
MIC P. aeruginosa ATCC 27883 [3]: 50 µg/mL (≈ 45.9 µM)

Structure (SMILES): N=C(N)NCCC[C@H](NC(=O)[C@H](CCCNC(=N)N)NC(=O)[C@H](CCCNC(=N)N)NC(=O)[C@@H](N)CCCNC(=N)N)C(=O)N[C@@H](Cc1ccc2ccccc2c1)C(=O)N[C@@H](Cc1ccc2ccccc2c1)C(=O)O [IFX-011-1, NH2-Arg-Arg-Arg-Arg-NaI-NaI-OH] (H-RRRR[2Nal][2Nal]-OH)
HC50 (human red blood cells): 310
MIC S. aureus ATCC 29213 (S. aureus ATCC 29213): 6.2 µg/mL (≈ 5.98 µM)
MIC E. coli ATCC 25922 [1]: 50 µg/mL (≈ 48.2 µM)
MIC MRSA ATCC BAA-1556 [2]: 6.2 µg/mL (≈ 5.98 µM)
MIC P. aeruginosa ATCC 27883 [3]: >100 µg/mL

Structure (SMILES): N=C(N)NCCC[C@H](NC(=O)[C@H](CCCNC(=N)N)NC(=O)[C@H](CCCNC(=N)N)NC(=O)[C@H](CCCNC(=N)N)NC(=O)[C@@H](N)CCCNC(=N)N)C(=O)N[C@@H](Cc1ccc2ccccc2c1)C(=O)N[C@@H](Cc1ccc2ccccc2c1)C(=O)N[C@@H](Cc1ccc2ccccc2c1)C(=O)O [IFX-013-1, NH2-Arg-Arg-Arg-Arg-Arg-NaI-NaI-NaI-OH] (H-RRRRR[2Nal][2Nal][2Nal]-OH)
HC50 (human red blood cells): 200
MIC S. aureus ATCC 29213 (S. aureus ATCC 29213): 3.1 µg/mL (≈ 2.23 µM)
MIC E. coli ATCC 25922 [1]: 25 µg/mL (≈ 18 µM)
MIC MRSA ATCC BAA-1556 [2]: 3.1 µg/mL (≈ 2.23 µM)
MIC P. aeruginosa ATCC 27883 [3]: 25 µg/mL (≈ 18 µM)

Structure (SMILES): N=C(N)NCCC[C@H](NC(=O)[C@@H](NC(=O)[C@@H](NC(=O)[C@H](CCCNC(=N)N)NC(=O)[C@H](CCCNC(=N)N)NC(=O)[C@@H](NC(=O)[C@@H](N)CCCNC(=N)N)C(c1ccccc1)c1ccccc1)C(c1ccccc1)c1ccccc1)C(c1ccccc1)c1ccccc1)C(=O)O [IFX-016-1, NH2-Arg-Dip-Arg-Arg-Dip-Dip-Arg-OH] (H-R[Dip]RR[Dip][Dip]R-OH)
HC50 (human red blood cells): 320
MIC S. aureus ATCC 29213 (S. aureus ATCC 29213): 12.5 µg/mL (≈ 9.52 µM)
MIC E. coli ATCC 25922 [1]: 25 µg/mL (≈ 19 µM)
MIC MRSA ATCC BAA-1556 [2]: 25 µg/mL (≈ 19 µM)
MIC P. aeruginosa ATCC 27883 [3]: >100 µg/mL

Structure (SMILES): N=C(N)NCCC[C@H](NC(=O)[C@H](CCCNC(=N)N)NC(=O)[C@@H](NC(=O)[C@@H](NC(=O)[C@H](CCCNC(=N)N)NC(=O)[C@@H](N)CCCNC(=N)N)C(c1ccccc1)c1ccccc1)C(c1ccccc1)c1ccccc1)C(=O)N[C@H](C(=O)O)C(c1ccccc1)c1ccccc1 [IFX-017-1, NH2-Arg-Arg-Dip-Dip-Arg-Arg-Dip-OH] (H-RR[Dip][Dip]RR[Dip]-OH)
HC50 (human red blood cells): 370
MIC S. aureus ATCC 29213 (S. aureus ATCC 29213): 12.5 µg/mL (≈ 9.52 µM)
MIC E. coli ATCC 25922 [1]: 25 µg/mL (≈ 19 µM)
MIC MRSA ATCC BAA-1556 [2]: 12.5 µg/mL (≈ 9.52 µM)
MIC P. aeruginosa ATCC 27883 [3]: 25 µg/mL (≈ 19 µM)

Structure (SMILES): N=C(N)NCCC[C@H](NC(=O)[C@H](Cc1ccc2ccccc2c1)NC(=O)[C@H](Cc1ccc2ccccc2c1)NC(=O)[C@H](CCCNC(=N)N)NC(=O)[C@H](CCCNC(=N)N)NC(=O)[C@H](Cc1ccc2ccccc2c1)NC(=O)[C@@H](N)CCCNC(=N)N)C(=O)O [IFX-018-1, NH2-Arg-NaI-Arg-Arg-NaI-NaI-Arg-OH] (H-R[2Nal]RR[2Nal][2Nal]R-OH)
HC50 (human red blood cells): 405
MIC S. aureus ATCC 29213 (S. aureus ATCC 29213): 12.5 µg/mL (≈ 10.1 µM)
MIC E. coli ATCC 25922 [1]: 25 µg/mL (≈ 20.3 µM)
MIC MRSA ATCC BAA-1556 [2]: 25 µg/mL (≈ 20.3 µM)
MIC P. aeruginosa ATCC 27883 [3]: 50 µg/mL (≈ 40.5 µM)

Structure (SMILES): N=C(N)NCCC[C@H](NC(=O)[C@H](CCCNC(=N)N)NC(=O)[C@H](Cc1ccc2ccccc2c1)NC(=O)[C@H](Cc1ccc2ccccc2c1)NC(=O)[C@H](CCCNC(=N)N)NC(=O)[C@@H](N)CCCNC(=N)N)C(=O)N[C@@H](Cc1ccc2ccccc2c1)C(=O)O [IFX-019-1, NH2-Arg-Arg-NaI-NaI-Arg-Arg-NaI-OH] (H-RR[2Nal][2Nal]RR[2Nal]-OH)
HC50 (human red blood cells): 395
MIC S. aureus ATCC 29213 (S. aureus ATCC 29213): 12.5 µg/mL (≈ 10.1 µM)
MIC E. coli ATCC 25922 [1]: 25 µg/mL (≈ 20.3 µM)
MIC MRSA ATCC BAA-1556 [2]: 25 µg/mL (≈ 20.3 µM)
MIC P. aeruginosa ATCC 27883 [3]: 25 µg/mL (≈ 20.3 µM)

Structure (SMILES): N=C(N)NCCC[C@H](NC(=O)[C@H](CCCNC(=N)N)NC(=O)[C@@H](N)CCCNC(=N)N)C(=O)N[C@@H](Cc1c[nH]c2ccccc12)C(=O)N[C@H](C(=O)N[C@H](C(=O)O)C(c1ccccc1)c1ccccc1)C(c1ccccc1)c1ccccc1 [IFX-020-1, NH2-R-R-R-Trp-Dip-Dip-OH] (H-RRRW[Dip][Dip]-OH)
HC50 (human red blood cells): 310
MIC S. aureus ATCC 29213 (S. aureus ATCC 29213): 6.2 µg/mL (≈ 5.54 µM)
MIC E. coli ATCC 25922 [1]: 6.2 µg/mL (≈ 5.54 µM)
MIC MRSA ATCC BAA-1556 [2]: 6.2 µg/mL (≈ 5.54 µM)
MIC P. aeruginosa ATCC 27883 [3]: 25 µg/mL (≈ 22.3 µM)

Second part, the compound after the results:

HC50 (human red blood cells): 270
MIC S. aureus ATCC 29213 (S. aureus ATCC 29213): 6.2 µg/mL (≈ 5.79 µM)
MIC E. coli ATCC 25922 [1]: 50 µg/mL (≈ 46.7 µM)
MIC MRSA ATCC BAA-1556 [2]: 6.2 µg/mL (≈ 5.79 µM)
MIC P. aeruginosa ATCC 27883 [3]: 25 µg/mL (≈ 23.3 µM)
Structure (SMILES): N=C(N)NCCC[C@@H]1NC(=O)[C@H](CCCNC(=N)N)NC(=O)[C@H](CCCNC(=N)N)NC(=O)[C@H](C(c2ccccc2)c2ccccc2)NC(=O)[C@H](C(c2ccccc2)c2ccccc2)NC(=O)[C@H](CCCNC(=N)N)NC1=O [IFX-010, c[Arg-Arg-Arg-Arg-Dip-Dip]] (cyclo([Dip][Dip]RRRR))

HC50 (human red blood cells): 295
MIC S. aureus ATCC 29213 (S. aureus ATCC 29213): 6.2 µg/mL (≈ 6.08 µM)
MIC E. coli ATCC 25922 [1]: 50 µg/mL (≈ 49.1 µM)
MIC MRSA ATCC BAA-1556 [2]: 6.2 µg/mL (≈ 6.08 µM)
MIC P. aeruginosa ATCC 27883 [3]: 50 µg/mL (≈ 49.1 µM)
Structure (SMILES): N=C(N)NCCC[C@@H]1NC(=O)[C@H](CCCNC(=N)N)NC(=O)[C@H](CCCNC(=N)N)NC(=O)[C@H](Cc2ccc3ccccc3c2)NC(=O)[C@H](Cc2ccc3ccccc3c2)NC(=O)[C@H](CCCNC(=N)N)NC1=O [IFX-011, c[Arg-Arg-Arg-Arg-NaI-NaI]] (cyclo([2Nal][2Nal]RRRR))

HC50 (human red blood cells): 195
MIC S. aureus ATCC 29213 (S. aureus ATCC 29213): 6.2 µg/mL (≈ 4.27 µM)
MIC E. coli ATCC 25922 [1]: 25 µg/mL (≈ 17.2 µM)
MIC MRSA ATCC BAA-1556 [2]: 6.2 µg/mL (≈ 4.27 µM)
MIC P. aeruginosa ATCC 27883 [3]: 25 µg/mL (≈ 17.2 µM)
Structure (SMILES): N=C(N)NCCC[C@@H]1NC(=O)[C@H](CCCNC(=N)N)NC(=O)[C@H](CCCNC(=N)N)NC(=O)[C@H](C(c2ccccc2)c2ccccc2)NC(=O)[C@H](C(c2ccccc2)c2ccccc2)NC(=O)[C@H](C(c2ccccc2)c2ccccc2)NC(=O)[C@H](CCCNC(=N)N)NC(=O)[C@H](CCCNC(=N)N)NC1=O [IFX-012, c[Arg-Arg-Arg-Arg-Arg-Dip-Dip-Dip]] (cyclo([Dip][Dip][Dip]RRRRR))

HC50 (human red blood cells): 230
MIC S. aureus ATCC 29213 (S. aureus ATCC 29213): 6.2 µg/mL (≈ 4.52 µM)
MIC E. coli ATCC 25922 [1]: 50 µg/mL (≈ 36.4 µM)
MIC MRSA ATCC BAA-1556 [2]: 6.2 µg/mL (≈ 4.52 µM)
MIC P. aeruginosa ATCC 27883 [3]: 25 µg/mL (≈ 18.2 µM)
Structure (SMILES): N=C(N)NCCC[C@@H]1NC(=O)[C@H](CCCNC(=N)N)NC(=O)[C@H](CCCNC(=N)N)NC(=O)[C@H](Cc2ccc3ccccc3c2)NC(=O)[C@H](Cc2ccc3ccccc3c2)NC(=O)[C@H](Cc2ccc3ccccc3c2)NC(=O)[C@H](CCCNC(=N)N)NC(=O)[C@H](CCCNC(=N)N)NC1=O [IFX-013, c[Arg-Arg-Arg-Arg-Arg-NaI-NaI-NaI]] (cyclo([2Nal][2Nal][2Nal]RRRRR))

HC50 (human red blood cells): 415
MIC S. aureus ATCC 29213 (S. aureus ATCC 29213): 12.5 µg/mL (≈ 10.6 µM)
MIC E. coli ATCC 25922 [1]: >100 µg/mL
MIC MRSA ATCC BAA-1556 [2]: 12.5 µg/mL (≈ 10.6 µM)
MIC P. aeruginosa ATCC 27883 [3]: >100 µg/mL
Structure (SMILES): NCCCC[C@@H]1NC(=O)[C@H](CCCCN)NC(=O)[C@H](CCCCN)NC(=O)[C@H](C(c2ccccc2)c2ccccc2)NC(=O)[C@H](C(c2ccccc2)c2ccccc2)NC(=O)[C@H](C(c2ccccc2)c2ccccc2)NC(=O)[C@H](CCCCN)NC1=O [IFX-014, c[Lys-Lys-Lys-Lys-Dip-Dip-Dip]] (cyclo([Dip][Dip][Dip]KKKK))

HC50 (human red blood cells): 480
MIC S. aureus ATCC 29213 (S. aureus ATCC 29213): 6.2 µg/mL (≈ 4.73 µM)
MIC E. coli ATCC 25922 [1]: 50 µg/mL (≈ 38.1 µM)
MIC MRSA ATCC BAA-1556 [2]: 12.5 µg/mL (≈ 9.54 µM)
MIC P. aeruginosa ATCC 27883 [3]: >100 µg/mL
Structure (SMILES): NCCCC[C@@H]1NC(=O)[C@H](CCCCN)NC(=O)[C@H](CCCCN)NC(=O)[C@H](C(c2ccccc2)c2ccccc2)NC(=O)[C@H](C(c2ccccc2)c2ccccc2)NC(=O)[C@H](C(c2ccccc2)c2ccccc2)NC(=O)[C@H](CCCCN)NC(=O)[C@H](CCCCN)NC1=O [IFX-015, c[Lys-Lys-Lys-Lys-Lys-Dip-Dip-Dip]] (cyclo([Dip][Dip][Dip]KKKKK))
